Like-named read-outs stand apart in the source and are kept apart here.
Tests used:
[1] = tested on: An. arabiensis (KWAG) larvae; assay: Larvicidal assay (WHO bioassay for mosquito larvicides); conditions: for LC50: Anopheles arabiensis, read-out: Larvicidal LC50 (95% confidence interval range)
Source text: (§1) The laboratory-reared colonies of An. funestus (FUMOZ), An. arabiensis (KWAG), An. gambiae (COGS) and An. coluzzii (G3) were used for larvicidal and AChE screening assays. These are common Anopheles species responsible for malaria transmission in Africa. These colonies were maintained under standard insectary conditions as reported by Hunt et al. and Zengenene et al.. FUMOZ was first collected from Mozambique in 2000 and has a low-level intensity of pyrethroid and carbamate resistance. KWAG was collected from KwaZulu-Natal (South Africa) in 2005 and has shown resistance to pyrethroids and the organochloride, dichloro-diphenyl-trichloroethane (DDT).
(§2) The incubation mixture was performed in a total volume of 250 mL of deionized water under 27°C and humidity ≥78%. The test compounds were dissolved in DMSO and assessed for larvicidal activity at 10 times increasing concentrations from 0.0005 μM to 500 μM. Propoxur, a standard larvicide and an AChE agent, was used as a positive control, while DMSO was employed for the negative vehicle control. Larval mortality was recorded in 24, 48 and 72 hours and larvae were fed with protein dog food at day 0 and after every mortality counting.
(§3) All in vitro and in vivo assays were performed in triplicate.

[2] = tested on: An. coluzzii (G3) larvae; assay: as above; conditions: read-out: Larvicidal LC50 (95% confidence interval range); An. coluzzii (G3) third-instar larvae
Source text: as §1, §2, §3

[3] = tested on: An. funestus (FUMOZ) larvae; assay: as above; conditions: read-out: Larvicidal LC50 (95% confidence interval range); An. funestus (FUMOZ) third-instar larvae
Source text: as §1, §2, §3

[4] = tested on: An. gambiae (COGS) larvae; assay: as above; conditions: Anopheles gambiae, read-out: Larvicidal LC50 (95% confidence interval range)
Source text: as §1, §2, §3

[5] = target: An. arabiensis AChE (Anopheles gambiae, UniProt Q869C3); assay: AChE assay (modified Ellman assay), mosquito homogenate; type: biochemical
Method: (§4) Mosquitoes from the four Anopheles colonies were separately homogenized in Na2HPO4, 1% Triton X-100 (pH 8.0) and used as an enzyme source. Protein content was assessed using the standard Lowry protein assay. The incubation mixture in a 96-well plate consisted of 20 μl of the enzyme in 132 μL of the assay buffer (Na2HPO4, 1% Triton X-100; pH 8.0). […] Ellman’s reagent, 5,5′-dithiobis(2-nitrobenzoic acid) (DTNB), was freshly prepared in sodium phosphate buffer (dibasic; pH 7.0) and 8 μL (0.2 mM) added to the incubation mixture. To initiate the reaction, 20 μL (1 mM) of the AChE substrate, acetylthiocholine iodide was added making a total volume of 200 μL in each well and the absorbance readings were obtained using the UV-Visible spectrophotometer at 412 nm. Propoxur was kept as a positive control on the basis of having both AChE and larvicidal activities, while DMSO was used as a negative control. […] However, the insecticide propoxur was also assessed against this target to determine AChE selectivity between electric eel and Anopheles and subsequent comparison with the test compounds.
as §3

[6] = tested on: An. funestus AChE; assay: as above; type: biochemical; conditions: read-out: Anopheles AChE inhibition IC50 ± SE (95% confidence interval range)
Method: as §4, §3

[7] = target: T1, An. gambiae AChE (Anopheles gambiae, UniProt Q869C3); assay: as above; type: biochemical
T1 construct: Mosquitoes from the four Anopheles colonies were separately homogenized in Na2HPO4, 1% Triton X-100 (pH 8.0) and used as an enzyme source; from tissue; host or cells: whole mosquito homogenate (An. gambiae colony)
Method: as §4, §3

[8] = target: electric eel AChE (Electrophorus electricus, UniProt O42275); assay: AChE assay (modified Ellman assay), electric eel AChE; type: biochemical
Method: as §4, §3

[9] = tested on: Artemia franciscana; conditions: read-out: Brine shrimp LC50 (95% confidence interval); Artemia franciscana nauplii, 24 h
Method: as §3

[10] = An. arabiensis homogenate, read-out: Anopheles AChE inhibition IC50 ± SE (95% confidence interval range)
[11] = An. gambiae homogenate, read-out: Anopheles AChE inhibition IC50 ± SE (95% confidence interval range)
[12] = read-out: Electric eel AChE inhibition IC50 ± SE (95% confidence interval range)

Chain of An. arabiensis AChE (Q869C3 162-698 limits assumed): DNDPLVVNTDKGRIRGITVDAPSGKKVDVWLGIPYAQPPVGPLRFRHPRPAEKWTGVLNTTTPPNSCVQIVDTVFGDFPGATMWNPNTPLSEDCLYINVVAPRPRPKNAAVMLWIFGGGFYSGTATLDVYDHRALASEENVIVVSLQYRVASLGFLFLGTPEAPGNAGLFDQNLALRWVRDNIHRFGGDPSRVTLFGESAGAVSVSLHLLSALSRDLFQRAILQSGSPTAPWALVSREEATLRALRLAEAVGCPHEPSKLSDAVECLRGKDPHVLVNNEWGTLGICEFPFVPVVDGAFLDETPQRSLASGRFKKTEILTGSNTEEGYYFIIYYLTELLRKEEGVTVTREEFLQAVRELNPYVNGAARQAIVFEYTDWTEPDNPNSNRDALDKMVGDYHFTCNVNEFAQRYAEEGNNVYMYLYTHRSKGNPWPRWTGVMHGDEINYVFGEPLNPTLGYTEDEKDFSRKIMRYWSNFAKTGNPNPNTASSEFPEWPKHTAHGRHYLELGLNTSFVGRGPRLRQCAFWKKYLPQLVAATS
Chain of electric eel AChE (O42275 24-633): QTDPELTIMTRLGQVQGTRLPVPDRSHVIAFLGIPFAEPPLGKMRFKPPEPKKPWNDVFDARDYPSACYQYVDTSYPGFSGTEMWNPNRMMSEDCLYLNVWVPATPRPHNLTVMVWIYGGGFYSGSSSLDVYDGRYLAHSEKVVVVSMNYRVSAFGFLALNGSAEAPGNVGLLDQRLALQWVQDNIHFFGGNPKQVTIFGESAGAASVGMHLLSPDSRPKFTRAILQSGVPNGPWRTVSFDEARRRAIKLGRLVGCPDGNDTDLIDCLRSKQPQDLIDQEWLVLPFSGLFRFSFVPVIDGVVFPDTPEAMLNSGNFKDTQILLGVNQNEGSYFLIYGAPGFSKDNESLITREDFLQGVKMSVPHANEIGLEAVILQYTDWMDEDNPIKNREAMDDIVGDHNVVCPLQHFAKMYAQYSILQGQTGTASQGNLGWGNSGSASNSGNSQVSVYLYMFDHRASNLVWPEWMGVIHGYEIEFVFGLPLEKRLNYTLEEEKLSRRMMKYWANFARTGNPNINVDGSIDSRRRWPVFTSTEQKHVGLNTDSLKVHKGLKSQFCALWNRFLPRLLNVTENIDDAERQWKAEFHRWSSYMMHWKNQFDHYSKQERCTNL
T1 sequence (Q869C3 39-737): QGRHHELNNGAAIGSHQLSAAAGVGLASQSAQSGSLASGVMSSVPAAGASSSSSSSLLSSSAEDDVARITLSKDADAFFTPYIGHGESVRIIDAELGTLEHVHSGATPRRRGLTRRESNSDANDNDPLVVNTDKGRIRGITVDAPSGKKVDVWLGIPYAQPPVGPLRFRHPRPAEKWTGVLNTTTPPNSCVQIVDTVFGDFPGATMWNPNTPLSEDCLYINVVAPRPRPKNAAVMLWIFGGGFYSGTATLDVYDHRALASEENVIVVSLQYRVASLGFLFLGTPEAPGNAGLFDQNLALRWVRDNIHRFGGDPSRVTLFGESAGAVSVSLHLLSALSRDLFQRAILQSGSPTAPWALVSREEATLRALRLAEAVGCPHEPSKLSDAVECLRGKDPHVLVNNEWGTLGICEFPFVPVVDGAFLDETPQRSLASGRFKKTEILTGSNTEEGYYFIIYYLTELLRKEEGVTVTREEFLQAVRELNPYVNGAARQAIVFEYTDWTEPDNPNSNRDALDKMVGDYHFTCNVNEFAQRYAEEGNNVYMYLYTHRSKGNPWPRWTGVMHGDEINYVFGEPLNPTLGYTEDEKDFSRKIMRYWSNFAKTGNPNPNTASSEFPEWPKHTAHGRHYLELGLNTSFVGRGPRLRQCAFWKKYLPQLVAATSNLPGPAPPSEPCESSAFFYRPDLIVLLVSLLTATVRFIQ

SMILES	LC50 [1] [µM]	LC50 [2] [µM]	LC50 [3] [µM]	LC50 [4] [µM]	IC50 [5] [µM]	IC50 [6] [µM]	IC50 [7] [µM]	IC50 [8] [µM]	IC50 [5, 10] [µM]	IC50 [7, 11] [µM]	IC50 [8, 12] [µM]	Fold more potent than propoxur for An. arabiensis larval toxicity ([1]; LC50 ratio versus propoxur)	LC50 [9] [µM]
CNC(=O)Oc1ccccc1OC(C)C [Propoxur, propoxur, reference compound]	8.77	62.7	9.9	64	0.78 ± 0.16	0.89 ± 0.2	26.1 ± 6.21	1.28 ± 0.35	–	–	–	–	–
O=C(NCCN1CCOCC1)C1CCN(Cc2ccccc2)CC1 [derivative 1, 1-benzyl-N-(2-morpholinoethyl) piperidine-4-carboxamide]	> 100	> 100	2.65	> 100	–	> 100	–	–	> 100	48.9 ± 10.5	> 100	–	–
O=C(Nc1nccs1)C1CCN(Cc2ccccc2)CC1 [derivative 2, 1-benzyl-N-(thiazol-2-yl) piperidine-4-carboxamide]	0.88	> 100	> 100	> 100	–	> 100	–	–	6.05 ± 2.21	> 100	55.7 ± 12	about 10 fold	–
COc1cc(CCNC(=O)C2CCN(Cc3ccccc3)CC2)cc(OC)c1OC [derivative 3, 1-benzyl-N-(3,4,5-trimethoxyphenethyl) piperidine-4-carboxamide]	> 100	> 100	> 100	> 100	–	–	–	–	–	–	–	–	–
O=C(NCc1cccnc1)C1CCN(Cc2ccccc2)CC1 [derivative 4, 1-benzyl-N-(pyridine-3-ylmethyl) piperidine-4-carboxamide]	> 100	> 100	> 100	> 100	–	–	–	–	–	–	–	–	–
O=C(NCc1ccco1)C1CCN(Cc2ccccc2)CC1 [derivative 5, 1-benzyl-N-(furan-2-ylmethyl) piperidine-4-carboxamide]	> 100	> 100	2.96	> 100	–	> 100	–	–	> 100	31.4 ± 7.56	> 100	–	–
O=C(NCCc1c[nH]cn1)C1CCN(Cc2ccccc2)CC1 [derivative 6, N-[2-(1H-imidazol-4-yl)ethyl]-1-benzylpiperidine-4-carboxamide]	> 100	> 100	> 100	> 100	–	–	–	–	–	–	–	–	–
O=C(NC1CCCc2ccccc21)C1CCN(Cc2ccccc2)CC1 (centres unmarked) [derivative 7, 1-benzyl-N-(1,2,3,4-tetrahydro-naphthalen-1-yl) piperidine-4-carboxamide]	> 100	> 100	> 100	> 100	–	–	–	–	–	–	–	–	–
O=C(NCCN1CCCCC1)C1CCN(Cc2ccccc2)CC1 [derivative 8, 1-benzyl-N-(2-(piperidin-1-yl)ethyl)piperidine-4-carboxamide]	> 100	> 100	0.8	> 100	–	> 100	–	–	> 100	28.1 ± 6.89	88.3 ± 19.9	–	–
O=C(NCc1ccncc1)C1CCN(Cc2ccccc2)CC1 [derivative 9, 1-benzyl-N-(pyridine-4-ylmethyl) piperidine-4-carboxamide]	> 100	> 100	> 100	> 100	–	–	–	–	–	–	–	–	–
[K+].[K+].[O]=[Cr](=[O])([O-])[O][Cr](=[O])(=[O])[O-] [potassium dichromate]	–	–	–	–	–	–	–	–	–	–	–	–	0.004

From publication PMC9645637 (PLOS ONE, 2022)
